Reference: patent publication US20240317714A1, “3-[(1H-PYRAZOL-R-YL)OXY]PYRAZIN-2-AMINE COMPOUNDS AS HPK1 INHIBITOR AND USE THEREOF” (BeiGene, Ltd., priority 2020, published 2024)

How the values were obtained:
[1] = target: HPK1 kinase (aal-346. Life Technologies) (Homo sapiens (Human), UniProt Q92918); assay: HPK Kinase Activity Assay at 1 mM ATP (TR-FRET); type: biochemical; settings: HPK1 kinase 40 nM, 0.5 μM STK1 substrate, read-out: Enzymatic activity IC50
[2] = test system: pSLP76(S376) level in Jurkat cell line; assay: Cellular pSLP76(S376) HTRF Assay; type: cell-based; settings: Homo sapiens, Jurkat, Jurkat cells, 2 h compound treatment, stimulated with 0.05 μg/mL anti-human CD3 (OKT3) for 30 min

Chain of HPK1 kinase (aal-346. Life Technologies) (Q92918 1-346): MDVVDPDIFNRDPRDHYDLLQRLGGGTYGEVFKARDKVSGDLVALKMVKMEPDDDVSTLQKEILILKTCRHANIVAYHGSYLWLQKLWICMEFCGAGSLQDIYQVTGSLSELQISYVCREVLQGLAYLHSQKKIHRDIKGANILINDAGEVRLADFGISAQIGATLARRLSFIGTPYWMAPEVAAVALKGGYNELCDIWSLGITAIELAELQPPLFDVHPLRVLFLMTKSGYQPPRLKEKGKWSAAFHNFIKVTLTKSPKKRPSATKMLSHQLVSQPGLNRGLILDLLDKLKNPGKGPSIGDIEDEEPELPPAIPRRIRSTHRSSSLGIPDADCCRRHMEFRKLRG

Row | IC50 [1] | IC50 [2] | SMILES
1 | 24 nM | 76 nM | Cc1cc(-c2cnc(N)c(Oc3cnn(C4CCN(C)CC4)c3)n2)cc(C)c1CNc1cnn(C)c1 [Example A57, 5-(3,5-dimethyl-4-(((1-methyl-1H-pyrazol-4-yl)amino)methyl)phenyl)-3-((1-(1-methylpiperidin-4-yl)-1H-pyrazol-4-yl)oxy)pyrazin-2-amine]
2 | 51 nM | 157 nM | Cc1cc(-c2cnc(N)c(Oc3cnn(C4CCN(C)CC4)c3)n2)cc(C)c1CNc1ncn(C)n1 [Example A68, 5-(3,5-dimethyl-4-(((1-methyl-1H-1,2,4-triazol-3-yl)amino)methyl)phenyl)-3-((1-(1-methylpiperidin-4-yl)-1H-pyrazol-4-yl)oxy)pyrazin-2-amine]
3 | 11 nM | 101 nM | CNS(=O)(=O)c1cc(-c2cnc(N)c(Oc3cnn(C4CCN(C)CC4)c3)n2)cc(N2CCCCC2)c1 [Example A41, 3-(5-amino-6-((1-(1-methylpiperidin-4-yl)-1H-pyrazol-4-yl)oxy)pyrazin-2-yl)-N-methyl-5-(piperidin-1-yl)benzenesulfonamide]
4 | 51 nM | 119 nM | CC(=O)NCc1c(C)cc(-c2cnc(N)c(Oc3cnn(C4CCN(C)CC4)c3)n2)cc1C [Example A45, N-(4-(5-amino-6-((1-(1-methylpiperidin-4-yl)-1H-pyrazol-4-yl)oxy)pyrazin-2-yl)-2,6-dimethylbenzyl)acetamide]

Further lines, the molecule ahead of its results:

Row | SMILES | IC50 [1] | IC50 [2]
5 | Cc1cc(-c2cnc(N)c(Oc3cnn(C4CCN(C)CC4)c3)n2)cc(C)c1CNC(=O)NC1(C(F)(F)F)CC1 [Example A64, 1-(4-(5-amino-6-((1-(1-methylpiperidin-4-yl)-1H-pyrazol-4-yl)oxy)pyrazin-2-yl)-2,6-dimethylbenzyl)-3-(1-(trifluoromethyl)cyclopropyl)urea] | 16 nM | 45 nM
6 | CCNC(=O)NCc1c(C)cc(-c2cnc(N)c(Oc3cnn(C4CCN(C)CC4)c3)n2)cc1C [Example A36, 1-(4-(5-amino-6-((1-(1-methylpiperidin-4-yl)-1H-pyrazol-4-yl)oxy)pyrazin-2-yl)-2,6-dimethylbenzyl)-3-ethylurea] | 22 nM | 54 nM
7 | Cc1cc(-c2cnc(N)c(Oc3cnn(C4CCN(C)CC4)c3)n2)cc([C@@]2(O)CCOC2)c1N1CCOCC1 [Example A97A, (S)-3-(5-(5-amino-6-((1-(1-methylpiperidin-4-yl)-1H-pyrazol-4-yl)oxy)pyrazin-2-yl)-3-methyl-2-morpholinophenyl)tetrahydrofuran-3-ol] | 18 nM | 78 nM
